The data set in a line: Compound gel-forming ability in water (visual inspection, tube tapping assay, tilted tube assay).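 On all read-outs here: peptides mixed with de-ionized water at about 22-25 °C, judged after 20 min by eye plus tube tapping (10 taps, moves counted) and 90° tilt mobility.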 It is filed as physicochemical. The note with it: for gel formation in aqueous solution, 11% / propensity to form gels, wild-type counterparts, 11% / propensity to form gels, chimeric or mutated polypeptides, 11%: 11% w/w; for Physical property at 11% w/w: 11% w/w in aqueous solution, room temperature; for gel formation at 11% w/w: 11% w/w in water; for gel formation at 20% w/w: 20% w/w in water; for gel formation at 6% w/w: 6% w/w in water.

Where no end group is shown, it is not given here. The star is where a group is joined. Palmitoyl = CCCCCCCCCCCCCCCC(=O)*

From patent US20200405868A1, “GEL-FORMING POLYPEPTIDES” (priority 2018, published 2020) come the findings set out here.

Consider “QQRFEWEFEQQ-miniPEG-RPKPQQFFGLM-NH2 [SEQ ID NO:285]”, for which the “gel formation in aqueous solution, 6%” value (Table 3, 6% w/w) was “AS/IS (AS/IS for aqueous solution or insoluble)”. Besides, the “gel formation in aqueous solution, 11%” value (Table 3) is “AS/IS (AS/IS for aqueous solution or insoluble)”.

On to Pal-VGSNTY-NH2 [SEQ ID NO:133], for which the “Physical property at 11% w/w” value (Table 2) is “AS/IS (AS/IS for aqueous solution or insoluble)”.

“(G1p)RPRLSHKGP(Nle)PF-miniPEG-K(Pal)VQKLSAPVDPSSPHSY-NH2 [SEQ ID NO:206]”: the “gel formation at 11% w/w” value was “liquid gel” and the “gel formation at 20% w/w” value is given as “liquid gel”.

“YRQSMNNFQGLRSFGCRFGTCTVQKLAHQIYQFTDKDKDNVAPRSKISPQGY-NH2 [SEQ ID NO:2, reference compound]”: the “Physical property at 11% w/w” value (Table 1) is “SS (SS for semisolid gel)”. In addition, the “gel formation in aqueous solution, 6%” value (Table 3, 6% w/w) is recorded as “AS/IS (AS/IS for aqueous solution or insoluble)”. Moreover, the “gel formation in aqueous solution, 11%” value (Table 3) was “SS (SS for semisolid gel)”.

As for “(Glp)RPRLSHKGP(Nle)PF-NH2 (pyroGlu; Nle; C-terminal amide) [SEQ ID NO:18, reference compound]”, the “gel formation at 6% w/w” value is “does not form gel”, the “gel formation at 11% w/w” value is “does not form gel” and the “gel formation at 20% w/w” value is “does not form gel”. Also, the “Physical property at 11% w/w” value (Table 1) is given as “AS/IS”. Under “Table 3, 6% w/w”, the “gel formation in aqueous solution, 6%” value is on record as “AS/IS (AS/IS for aqueous solution or insoluble)”. Further, the “gel formation in aqueous solution, 11%” value (Table 3) was “AS/IS (AS/IS for aqueous solution or insoluble)”. Under “Table 3, 20% w/w”, the “gel formation in aqueous solution, 20%” value is listed as “AS/IS (AS/IS for aqueous solution or insoluble)”. Also, the “propensity to form gels, wild-type counterparts, 6%” value (Table 5, 6% w/w) was “AS/IS”. Moreover, the “propensity to form gels, wild-type counterparts, 11%” value (Table 5) is “AS/IS”. Moreover, the “propensity to form gels, wild-type counterparts, 20%” value (Table 5, 20% w/w) is recorded as “AS/IS”. Further, where the note is “selected concentration (i.e., at 30%, 20%, 11%, or 6% w/w)”, the “gel formation at the selected concentration” value was “only form aqueous solution or are insoluble”.

Regarding “Pal-HSY-(D-Met)-FHLMD-NH2 [SEQ ID NO:211]”, the “gel formation at 6% w/w” value is given as “semisolid or liquid gel” and the “gel formation at 11% w/w” value is “semisolid gel”. Also, the “gel formation in aqueous solution, 11%” value (Table 3) is on record as “SS (SS for semisolid gel)”.

Regarding “Pal-KVQKLSAPVDPSSPHSY-miniPEG-CYIQNCPLG-NH2 [SEQ ID NO:205]”, the “gel formation at 6% w/w” value is given as “liquid gel” and the “gel formation at 11% w/w” value is listed as “semisolid gel”. Further, the “gel formation in aqueous solution, 11%” value (Table 3) is given as “SS (SS for semisolid gel)”. Further, where the note is “Table 5”, the “propensity to form gels, chimeric or mutated polypeptides, 11%” value is listed as “SS (An ability to form semisolid gel is represented by an SS)”.

“Pal-SSPHSY-miniPEG -SYS-Nle-EH-(D-Phe)-RWGKPV-NH2 [SEQ ID NO:223]”: where the note is “Table 3, 20% w/w”, the “gel formation in aqueous solution, 20%” value is listed as “SS (SS for semisolid gel)”.

On to “Pal-KVQKLSAPVDPSSPHSY-miniPEG-YNWNSFGLRF-NH2 [SEQ ID NO:208]”, for which, where the note is “Table 3, 20% w/w”, the “gel formation in aqueous solution, 20%” value is given as “SS (SS for semisolid gel)”. Besides, under “Table 5, 20% w/w”, the “propensity to form gels, chimeric or mutated polypeptides, 20%” value is on record as “SS (An ability to form semisolid gel is represented by an SS)”.

Regarding “Pal-SSPHSY-miniPEG-RC-(D-Ala)-H-(D-Phe)-RWC-NH2. [SEQ ID NO:227]”, the “gel formation at 30% w/w” value (30% w/w in water) is listed as “form gel”. For the same compound, the “gel formation in aqueous solution, 11%” value (Table 3) is “AS/IS (AS/IS for aqueous solution or insoluble)”. Also, the “gel formation in aqueous solution, 30%” value (Table 3, 30% w/w) was “SS (SS for semisolid gel)”.

As to “Pal-KVQKLSAPVDPSSPHSY-miniPEG-CYFQNCPRG-NH2 [SEQ ID NO:204]”, the “gel formation at 6% w/w” value was “semisolid gel” and the “gel formation at 11% w/w” value is given as “semisolid gel”. The “gel formation in aqueous solution, 6%” value (Table 3, 6% w/w) is recorded as “SS (SS for semisolid gel)”. Under “Table 3”, the “gel formation in aqueous solution, 11%” value is “SS (SS for semisolid gel)”. Moreover, the “propensity to form gels, chimeric or mutated polypeptides, 6%” value (Table 5, 6% w/w) was “SS (An ability to form semisolid gel is represented by an SS)”. Under “Table 5”, the “propensity to form gels, chimeric or mutated polypeptides, 11%” value is on record as “SS (An ability to form semisolid gel is represented by an SS)”.

Take “YADAIFTNSYRKVLGQLSARKLLQDIMSR-NH2 [SEQ ID NO:35, reference compound]”: the “gel formation at 11% w/w” value was “does not form gel” and the “gel formation at 20% w/w” value is “does not form gel”. The “Physical property at 11% w/w” value (Table 1) was “AS/IS”. The “gel formation in aqueous solution, 11%” value (Table 3) is “AS/IS (AS/IS for aqueous solution or insoluble)”. Under “Table 3, 20% w/w”, the “gel formation in aqueous solution, 20%” value is listed as “AS/IS (AS/IS for aqueous solution or insoluble)”. Also, the “propensity to form gels, wild-type counterparts, 11%” value (Table 5) is listed as “AS/IS”. Moreover, where the note is “Table 5, 20% w/w”, the “propensity to form gels, wild-type counterparts, 20%” value was “AS/IS”.

Consider “Ace-K(PAL)FGCRFGTCTVQKLAHQIYQFTDKDKDNVAPRSKISPQGY-NH2 [SEQ ID NO:1]”, for which the “gel formation at 11% w/w” value is recorded as “liquid gel”. Under “Table 3, 6% w/w”, the “gel formation in aqueous solution, 6%” value was “AS/IS (AS/IS for aqueous solution or insoluble)”. For the same compound, the “propensity to form gels, wild-type counterparts, 3%” value (Table 5, 3% w/w) is reported as “AS/IS”. The “propensity to form gels, wild-type counterparts, 6%” value (Table 5, 6% w/w) was “AS/IS”.

Turning to “Pal-SDAAVDTSSEITTKDLKEKKEVVEEAEN-NH2 [SEQ ID NO:268]”, the “gel formation at 11% w/w” value is given as “semisolid gel”. The “gel formation in aqueous solution, 11%” value (Table 3) is given as “SS (SS for semisolid gel)”. In addition, the “propensity to form gels, chimeric or mutated polypeptides, 11%” value (Table 5) is “SS (An ability to form semisolid gel is represented by an SS)”.

Take “Pal-KPSSPHSY-NH2 (Palmitoyl-KPSSPHSY-NH2; SMILES CCCCCCCCCCCCCCCC(=O)N[C@@H](CCCCN)C(=O)N1CCC[C@H]1C(=O)N[C@@H](CO)C(=O)N[C@@H](CO)C(=O)N1CCC[C@H]1C(=O)N[C@@H](Cc1c[nH]cn1)C(=O)N[C@@H](CO)C(=O)N[C@@H](Cc1ccc(O)cc1)C(N)=O) [SEQ ID NO:118]”: where the note is “Table 2”, the “Physical property at 11% w/w” value is listed as “SS (SS for semisolid gel)”.

“Pal-VGSKAF-NH2 (Palmitoyl-VGSKAF-NH2; SMILES CCCCCCCCCCCCCCCC(=O)N[C@H](C(=O)NCC(=O)N[C@@H](CO)C(=O)N[C@@H](CCCCN)C(=O)N[C@@H](C)C(=O)N[C@@H](Cc1ccccc1)C(N)=O)C(C)C; UniProt P06881 114-119, looked up, fragment) [SEQ ID NO:132]”: the “Physical property at 11% w/w” value (Table 2) is “AS/IS (AS/IS for aqueous solution or insoluble)”.

As to Pal-KSY-NH2 [SEQ ID NO:121], under “Table 2”, the “Physical property at 11% w/w” value is listed as “SS (SS for semisolid gel)”.

On to `CC[C@H](C)[C@H](NC(=O)[C@@H]1CCCN1C(=O)CNC(=O)[C@H](Cc1ccccc1)NC(=O)[C@H](CC(N)=O)NC(=O)[C@H](CC(N)=O)NC(=O)[C@H](CO)NC(=O)[C@H](CO)NC(=O)[C@H](Cc1c[nH]cn1)NC(=O)[C@@H](NC(=O)[C@H](CC(C)C)NC(=O)[C@H](Cc1ccccc1)NC(=O)[C@H](CC(N)=O)NC(=O)[C@H](C)NC(=O)[C@H](CC(C)C)NC(=O)[C@H](CCCNC(=N)N)NC(=O)[C@H](CCC(N)=O)NC(=O)[C@@H](NC(=O)[C@H](C)NC(=O)[C@@H]1CSSC[C@H](NC(=O)[C@@H](N)CCCCN)C(=O)N[C@@H](CC(N)=O)C(=O)N[C@@H]([C@@H](C)O)C(=O)N[C@@H](C)C(=O)N[C@@H]([C@@H](C)O)C(=O)N1)[C@@H](C)O)C(C)C)C(=O)N[C@@H](CC(C)C)C(=O)N1CCC[C@H]1C(=O)N1CCC[C@H]1C(=O)N[C@H](C(=O)N[C@@H](CC(N)=O)C(=O)N[C@H](C(=O)NCC(=O)N[C@@H](CO)C(=O)N[C@@H](CC(N)=O)C(=O)N[C@H](C(=O)N[C@@H](Cc1ccc(O)cc1)C(N)=O)[C@@H](C)O)C(C)C)[C@@H](C)O` [SEQ ID NO:4, reference compound], for which the “gel formation at 6% w/w” value is “does not form gel” and the “gel formation at 11% w/w” value is listed as “semisolid gel”. The “Physical property at 11% w/w” value (Table 1) is “SS (SS for semisolid gel)”. In addition, the “gel formation in aqueous solution, 11%” value (Table 3) is “AS/IS (AS/IS for aqueous solution or insoluble)”. Moreover, the “gel formation in aqueous solution, 20%” value (Table 3, 20% w/w) is on record as “SS (SS for semisolid gel)”. Where the note is “Table 5, 6% w/w”, the “propensity to form gels, wild-type counterparts, 6%” value was “AS/IS”. Further, the “propensity to form gels, wild-type counterparts, 11%” value (Table 5) is “SS (An ability to form semisolid gel is represented by an SS)”.

Take `NC(=O)CC[C@@H]1NC(=O)[C@H](Cc2ccccc2)NC(=O)[C@H](Cc2ccc(O)cc2)NC(=O)[C@@H](N)CSSC[C@@H](C(=O)N2CCC[C@H]2C(=O)N[C@@H](CCCN=C(N)N)C(=O)NCC(N)=O)NC(=O)[C@H](CC(N)=O)NC1=O` [SEQ ID NO:17, reference compound]: the “gel formation at 11% w/w” value is given as “does not form gel”. Besides, the “Physical property at 11% w/w” value (Table 1) was “AS/IS”. In addition, the “gel formation in aqueous solution, 11%” value (Table 3) is on record as “AS/IS (AS/IS for aqueous solution or insoluble)”. The “propensity to form gels, wild-type counterparts, 11%” value (Table 5) is recorded as “AS/IS”.

Turning to “FTLSLDVPTNIMNLLFNIAKAKNLRAQAAANAHLMAQI-NH2 [SEQ ID NO:10, reference compound]”, the “gel formation at 6% w/w” value was “semisolid gel” and the “gel formation at 11% w/w” value is reported as “semisolid gel”. Under “3% w/w in water”, the “gel formation at 3% w/w” value is reported as “liquid gel”. Also, the “Physical property at 11% w/w” value (Table 1) is “SS (SS for semisolid gel)”. For the same compound, the “gel formation in aqueous solution, 11%” value (Table 3) is recorded as “SS (SS for semisolid gel)”. For the same compound, the “gel formation in aqueous solution, 20%” value (Table 3, 20% w/w) is listed as “SS (SS for semisolid gel)”. In addition, for the setting “Table 5, 6% w/w”, the “propensity to form gels, wild-type counterparts, 6%” value is on record as “SS (An ability to form semisolid gel is represented by an SS)”. Moreover, for the setting “Table 5”, the “propensity to form gels, wild-type counterparts, 11%” value was “SS (An ability to form semisolid gel is represented by an SS)”.

With “Ace-NFVPTNVGPFAF-NH2 (Ac-NFVPTNVGPFAF-NH2) [SEQ ID NO:134]”, where the note is “Table 2”, the “Physical property at 11% w/w” value is recorded as “AS/IS (AS/IS for aqueous solution or insoluble)”.

In the case of “Pal-SSPHSY-miniPEG-YADAIFTNSYRKVLGQLSARKLLQDIMSR-NH2 [SEQ ID NO:236]”, the “gel formation in aqueous solution, 6%” value (Table 3, 6% w/w) is “AS/IS (AS/IS for aqueous solution or insoluble)”. In addition, the “gel formation in aqueous solution, 11%” value (Table 3) was “AS/IS (AS/IS for aqueous solution or insoluble)”.

Turning to “DRVYIHPF-NH2 [SEQ ID NO:16, reference compound]”, under “Table 1”, the “Physical property at 11% w/w” value was “AS/IS”.
